The values below come from patent US20190116833A1, “FEED ADDITIVE COMPOSITIONS” (priority 2017, published 2019).

Series [1] can be described thus: Growth performance of early weaned pigs, SMBS titration (Example 3). Format: in vivo. Particulars: in words. An excerpt: A total of 1,296 weanling pigs were used to determine the impact of […] on growth performance in 19 to 20 day old pigs. The ratio of same-sow source pens was equalized within treatments. The number of barrows and gilts was balanced within the pen (either 13 […] or 14 […] per pen). Upon arrival weanling pigs were sorted to pens (48 pens with 27 pigs per pen) and weighed as a complete pen of pigs. Pens within block were randomly assigned to one of 4 dietary treatments (1 control and 3 experimental diets; Table 6) in a randomized complete block design. Diets containing testing products were made by mixing the testing products into the basal diet (Table 7).
Pig weights were taken at placement and at the end of each diet phase (day 9 and 23). Feed weights were collected daily and the data was used to calculate ADG, ADFI and F/G for both diet phases and for the entire experimental period (23 days). Blood samples were on day 0 and 23 of the study from one barrow in each pen. Each pen was selected at the beginning of the study, identified with an ear tag, and sampled again at the end of the study. 8.5 mL blood was collected and allowed to clot on ice for at least 1.5 hr and centrifuged at 2,000×g for 13 min (4° C.). Fecal scores for each pen were collected on d 3, 5, 7, and 10 using the following scale: 0=none; 1=mild; 2=substantial; 3=severe (Citation 1: Marquardt et al., 1999).

Series [2] in a line: Post-weaning pig growth performance, SMBS vs SMBS + formulated yeast, 2-phase feeding (Example 7). It is filed as in vivo. The source says: A total of 972 pigs were used to determine the effect of sodium metabisulfite (SMBS) or SMBS plus formulated yeast on weanling pig growth performance. Upon arrival pigs were sorted to pens with 27 pigs per pen. Pigs were weighed on pen basis. Pens within block were randomly assigned to one of 3 dietary treatments (1 control and 2 experimental diets; Table 17) in a randomized complete block design. This will result in 12 pens for each treatment for evaluation of growth performance, fecal scores, and health status.
This experiment was conducted for approximately 22 days in a 2-phase feeding program (Table 18) immediately after weaning. Feed was provided through the FeedLogic® system allowing collection of feed intake data by pen.

Molecules are shown by their SMILES. Marks after values point to notes of the source that are not given here.

On to `O=S([O-])S(=O)(=O)[O-].[Na+].[Na+]` [SMBS, sodium metabisulfite], for which the “ADG and F/G” value in series [1] (increasing levels, both phases of the study) is listed as “linear (P<0.05) improvements”. For the same compound, in series [1] (titrating from 0 to 10 lb/ton), the ADG entry is reported as “Linear increase” and the F/G result is on record as “Linear decrease”. Also, in series [2] (Phase 1 + 2, 22 days), the ADFI was 0.78^cd lb/day; the ADG turned out to be 0.54 lb/day; the “ADG, change versus Control” value is “(+10.2%)^b”; the “F:G” value stood at 1.45. In series [2] (Phase 1 + 2, 22 days), the “F:G, change versus Control” value is recorded as “(−6.5%)^b”; the Mortality stood at 0.6%; the Total removal is listed as 2.2%. In series [2] (Phase 1, 8 days), the ADFI came to 0.46 lb/day, the ADG is 0.16^d lb/day and the “G:F” value is given as 0.35^d. In addition, in series [2] (Phase 2, 14 days), the ADFI is 0.96^ab lb/day, the ADG was 0.76^b lb/day and the “F:G” value is listed as 1.27^b. The “BW end of Phase 1” value in series [2] (end of Phase 1, 8 days) was determined as 13.4 lb. For the same compound, the “BW end of Phase 2” value in series [2] (end of Phase 2, 14 days) is recorded as 24.1^b lb. The “Start BW” value in series [2] (start of experiment (baseline)) is listed as 11.8 lb.
